How the values were obtained:
Format in all cases: in vivo
[1] = test system: galium (catchweed bedstraw, Galium aparine); assay: Test A postemergence application, visual injury rating 0-100; conditions: Postemergence, 10 days; for Galium plant response rating (0 to 100 scale): 0 is no effect, 100 is complete control
Method in brief: (§1)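 Grow plants in loam soil blended with sand. Apply formulated compound (non-phytotoxic solvent, surfactant) as a directed soil spray before emergence, or to plants at the one- to two-leaf stage after emergence. Hold in greenhouse 10 days, then rate injury visually versus untreated controls on a 0-100 scale.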

soybean (Glycine max) [2] = assay: as above; conditions: Postemergence, 10 days, 0 is no effect, 100 is complete control
Method in brief: as §1

[3] = test system: goosegrass (Eleusine indica); assay: as above; conditions: 10 days; for Goosegrass plant response rating (0 to 100 scale): 0 is no effect, 100 is complete control
Method in brief: as §1

corn (Zea mays) [4] = assay: as above; conditions: Postemergence, 10 days, 0 is no effect, 100 is complete control
Method in brief: as §1

[5] = test system: blackgrass (Alopecurus myosuroides); assay: as above; conditions: Postemergence, 10 days; for Blackgrass plant response rating (0 to 100 scale): 0 is no effect, 100 is complete control
Method in brief: as §1

[6] = test system: horseweed (Erigeron canadensis); assay: as above; conditions: Postemergence, 10 days; for Horseweed plant response rating (0 to 100 scale): 0 is no effect, 100 is complete control
Method in brief: as §1

[7] = test system: ragweed (common ragweed, Ambrosia artemisiifolia); assay: as above; conditions: Postemergence, 10 days; for Ragweed plant response rating (0 to 100 scale): 0 is no effect, 100 is complete control
Method in brief: as §1

[8] = test system: palmer (palmer amaranth, palmer pigweed, Amaranthus palmeri); assay: as above; conditions: Postemergence, 10 days; for Amaranth, Palmer / Pigweed, Palmer plant response rating (0 to 100 scale): 0 is no effect, 100 is complete control
Method in brief: as §1

[9] = test system: ryegrass, Italian (italian ryegrass, Lolium multiflorum); assay: as above; conditions: Postemergence, 10 days; for Ryegrass, Italian plant response rating (0 to 100 scale): 0 is no effect, 100 is complete control
Method in brief: as §1

[10] = test system: foxtail, giant (giant foxtail, Setaria faberi); assay: as above; conditions: 10 days; for Foxtail, Giant plant response rating (0 to 100 scale): 0 is no effect, 100 is complete control
Method in brief: as §1

[11] = test system: wheat (Triticum aestivum); assay: as above; conditions: Postemergence, 10 days, 0 is no effect, 100 is complete control
Method in brief: as §1

kochia (Bassia scoparia) [12] = assay: as above; conditions: Postemergence, 10 days; for Kochia plant response rating (0 to 100 scale): 0 is no effect, 100 is complete control
Method in brief: as §1

[13] = test system: oat, wild (wild oat, Avena fatua); assay: as above; conditions: Postemergence, 10 days, 0 is no effect, 100 is complete control
Method in brief: as §1

soybean (Glycine max) [14] = assay: Test A preemergence soil spray, visual injury rating 0-100; conditions: 10 days, 0 = no effect, 100 = complete control
Method in brief: as §1

[15] = test system: goosegrass (Eleusine indica); assay: as above; conditions: 10 days, 0 = no effect, 100 = complete control
Method in brief: as §1

corn (Zea mays) [16] = assay: as above; conditions: 10 days, 0 = no effect, 100 = complete control
Method in brief: as §1

[17] = test system: blackgrass (Alopecurus myosuroides); assay: as above; conditions: 10 days, 0 = no effect, 100 = complete control
Method in brief: as §1

[18] = test system: ragweed (common ragweed, Ambrosia artemisiifolia); assay: as above; conditions: 10 days, 0 = no effect, 100 = complete control
Method in brief: as §1

[19] = test system: palmer (palmer amaranth, palmer pigweed, Amaranthus palmeri); assay: as above; conditions: 10 days, 0 = no effect, 100 = complete control
Method in brief: as §1

[20] = test system: ryegrass, Italian (italian ryegrass, Lolium multiflorum); assay: as above; conditions: 10 days, 0 = no effect, 100 = complete control
Method in brief: as §1

[21] = test system: foxtail, giant (giant foxtail, Setaria faberi); assay: as above; conditions: 10 days, 0 = no effect, 100 = complete control
Method in brief: as §1

[22] = test system: wheat (Triticum aestivum); assay: as above; conditions: 10 days, 0 = no effect, 100 = complete control
Method in brief: as §1

kochia (Bassia scoparia) [23] = assay: as above; conditions: 10 days, 0 = no effect, 100 = complete control
Method in brief: as §1

[24] = test system: oat, wild (wild oat, Avena fatua); assay: as above; conditions: 10 days, 0 = no effect, 100 = complete control
Method in brief: as §1

rice (Oryza sativa) = assay: Test B flooded paddy test, visual plant response rating 0-100; conditions: 250 g ai/ha, Flood, applied to paddy water, evaluated after 13 days
Method in brief: (§2)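 Compounds applied to standing paddy water (3 cm above soil, maintained for the test duration) on 2-leaf-stage plants; visual rating vs controls at 13 days, greenhouse.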

[25] = test system: barnyardgrass (Echinochloa crusgalli); assay: as above; conditions: 250 g ai/ha, Flood, applied to paddy water, evaluated after 13 days
Method in brief: as §2

[26] = test system: sedge, umbrella (small-flower umbrella sedge, Cyperus difformis); assay: as above; conditions: 250 g ai/ha, Flood, applied to paddy water, evaluated after 13 days
Method in brief: as §2

[27] = test system: ducksalad (Heteranthera limosa); assay: as above; conditions: 250 g ai/ha, Flood, applied to paddy water, evaluated after 13 days
Method in brief: as §2

SMILES: CONC(=O)C1C=CC(NC(=O)C2(C)CN(c3cc(F)cc(F)c3)C(=O)O2)C1 (centres unmarked) [Compound 25]
- Galium plant response rating (0 to 100 scale) ([1]; 125 g ai/ha): 80
- Galium plant response rating (0 to 100 scale) ([1]; 500 g ai/ha): 80
- Soybean plant response rating (0 to 100 scale) (soybean (Glycine max) [2]; 125 g ai/ha): 70
- Soybean plant response rating (0 to 100 scale) (soybean (Glycine max) [2]; 500 g ai/ha): 80
- Goosegrass plant response rating (0 to 100 scale) ([3]; 125 g ai/ha): 90
- Goosegrass plant response rating (0 to 100 scale) ([3]; 500 g ai/ha): 90
- Corn plant response rating (0 to 100 scale) (corn (Zea mays) [4]; 125 g ai/ha): 100
- Corn plant response rating (0 to 100 scale) (corn (Zea mays) [4]; 500 g ai/ha): 100
- Blackgrass plant response rating (0 to 100 scale) ([5]; 125 g ai/ha): 80
- Blackgrass plant response rating (0 to 100 scale) ([5]; 500 g ai/ha): 90
- Horseweed plant response rating (0 to 100 scale) ([6]; 125 g ai/ha): 60
- Horseweed plant response rating (0 to 100 scale) ([6]; 500 g ai/ha): 80
- Ragweed plant response rating (0 to 100 scale) ([7]; 125 g ai/ha): 60
- Ragweed plant response rating (0 to 100 scale) ([7]; 500 g ai/ha): 80
- Amaranth, Palmer / Pigweed, Palmer plant response rating (0 to 100 scale) ([8]; 125 g ai/ha): 90
- Amaranth, Palmer / Pigweed, Palmer plant response rating (0 to 100 scale) ([8]; 500 g ai/ha): 90
- Ryegrass, Italian plant response rating (0 to 100 scale) ([9]; 125 g ai/ha): 60
- Ryegrass, Italian plant response rating (0 to 100 scale) ([9]; 500 g ai/ha): 60
- Foxtail, Giant plant response rating (0 to 100 scale) ([10]; 125 g ai/ha): 90
- Foxtail, Giant plant response rating (0 to 100 scale) ([10]; 500 g ai/ha): 90
- Wheat plant response rating (0 to 100 scale) ([11]; 125 g ai/ha): 80
- Wheat plant response rating (0 to 100 scale) ([11]; 500 g ai/ha): 80
- Kochia plant response rating (0 to 100 scale) (kochia (Bassia scoparia) [12]; 125 g ai/ha): 80
- Kochia plant response rating (0 to 100 scale) (kochia (Bassia scoparia) [12]; 500 g ai/ha): 90
- Oat, Wild plant response rating (0 to 100 scale) ([13]; 125 g ai/ha): 90
- Oat, Wild plant response rating (0 to 100 scale) ([13]; 500 g ai/ha): 100
- Soybean plant response rating (0 to 100 scale) (soybean (Glycine max) [14]; 125 g ai/ha): 0
- Soybean plant response rating (0 to 100 scale) (soybean (Glycine max) [14]; 500 g ai/ha): 70
- Goosegrass plant response rating (0 to 100 scale) ([15]; 125 g ai/ha): 30
- Goosegrass plant response rating (0 to 100 scale) ([15]; 500 g ai/ha): 100
- Corn plant response rating (0 to 100 scale) (corn (Zea mays) [16]; 125 g ai/ha): 50
- Corn plant response rating (0 to 100 scale) (corn (Zea mays) [16]; 500 g ai/ha): 90
- Blackgrass plant response rating (0 to 100 scale) ([17]; 125 g ai/ha): 40
- Blackgrass plant response rating (0 to 100 scale) ([17]; 500 g ai/ha): 90
- Ragweed plant response rating (0 to 100 scale) ([18]; 125 g ai/ha): 0
- Ragweed plant response rating (0 to 100 scale) ([18]; 500 g ai/ha): 30
- Amaranth, Palmer plant response rating (0 to 100 scale) ([19]; 125 g ai/ha): 10
- Amaranth, Palmer plant response rating (0 to 100 scale) ([19]; 500 g ai/ha): 80
- Ryegrass, Italian plant response rating (0 to 100 scale) ([20]; 125 g ai/ha): 60
- Ryegrass, Italian plant response rating (0 to 100 scale) ([20]; 500 g ai/ha): 90
- Foxtail, Giant plant response rating (0 to 100 scale) ([21]; 125 g ai/ha): 20
- Foxtail, Giant plant response rating (0 to 100 scale) ([21]; 500 g ai/ha): 90
- Wheat plant response rating (0 to 100 scale) ([22]; 125 g ai/ha): 60
- Wheat plant response rating (0 to 100 scale) ([22]; 500 g ai/ha): 100
- Kochia plant response rating (0 to 100 scale) (kochia (Bassia scoparia) [23]; 125 g ai/ha): 30
- Kochia plant response rating (0 to 100 scale) (kochia (Bassia scoparia) [23]; 500 g ai/ha): 90
- Oat, Wild plant response rating (0 to 100 scale) ([24]; 125 g ai/ha): 80
- Oat, Wild plant response rating (0 to 100 scale) ([24]; 500 g ai/ha): 90

SMILES: CNC(=O)C1C=CC(NC(=O)C2(C)CN(c3cc(F)cc(F)c3)C(=O)O2)C1 (centres unmarked) [Compound 26]
- Galium plant response rating ([1]; 1000 g ai/ha, 0 to 100 scale): 70
- Goosegrass plant response rating ([3]; 1000 g ai/ha, 0 to 100 scale): 90
- Blackgrass plant response rating ([5]; 1000 g ai/ha, 0 to 100 scale): 90
- Horseweed plant response rating ([6]; 1000 g ai/ha, 0 to 100 scale): 70
- Ragweed plant response rating ([7]; 1000 g ai/ha, 0 to 100 scale): 50
- Amaranth, Palmer plant response rating ([8]; 1000 g ai/ha, 0 to 100 scale): 90
- Ryegrass, Italian plant response rating ([9]; 1000 g ai/ha, 0 to 100 scale): 70
- Foxtail, Giant plant response rating ([10]; 1000 g ai/ha, 0 to 100 scale): 90
- Kochia plant response rating (kochia (Bassia scoparia) [12]; 1000 g ai/ha, 0 to 100 scale): 80
- Plant response rating, Rice (0 to 100 scale, 0 is no effect and 100 is complete control) (rice (Oryza sativa)): 35
- Plant response rating, Barnyardgrass (0 to 100 scale, 0 is no effect and 100 is complete control) [25]: 45
- Plant response rating, Sedge, Umbrella (0 to 100 scale, 0 is no effect and 100 is complete control) [26]: 95
- Plant response rating, Ducksalad (0 to 100 scale, 0 is no effect and 100 is complete control) [27]: 95
- Goosegrass plant response rating (0 to 100 scale) ([15]; 1000 g ai/ha): 100
- Blackgrass plant response rating (0 to 100 scale) ([17]; 1000 g ai/ha): 100
- Ragweed plant response rating (0 to 100 scale) ([18]; 1000 g ai/ha): 90
- Amaranth, Palmer / Pigweed, Palmer plant response rating (0 to 100 scale) ([19]; 1000 g ai/ha): 100
- Ryegrass, Italian plant response rating (0 to 100 scale) ([20]; 1000 g ai/ha): 100
- Foxtail, Giant plant response rating (0 to 100 scale) ([21]; 1000 g ai/ha): 100
- Kochia plant response rating (0 to 100 scale) (kochia (Bassia scoparia) [23]; 1000 g ai/ha): 90

From patent US20260285850A1, “SUBSTITUTED OXAZOLIDINONES AND IMIDAZOLINONES AS HERBICIDES” (FMC CORPORATION, priority 2023, published 2026)
